Test results: article PMC10325900, “A conserved motif in the disordered linker of human MLH1 is vital for DNA mismatch repair and its function is diminished by a cancer family mutation” (Nucleic Acids Research, 2023)
pEC50: −log10 of the molar value. Entries after “also recorded” stand apart in the source; their conditions may differ. No end group written: not given here.

Molecular target: T1, MLH1-ΔConMot-PMS2 (Homo sapiens, UniProt P40692+P54278, DEL377-396)
T1 construct: The pcDNA3 expression vector containing the entire open reading frame of human MLH1; expressed in transfected cells; host or cells: HEK293T (MLH1-deficient), transiently co-transfected
T1 sequence (P40692 with tags, fused parts or gaps DEL377-396): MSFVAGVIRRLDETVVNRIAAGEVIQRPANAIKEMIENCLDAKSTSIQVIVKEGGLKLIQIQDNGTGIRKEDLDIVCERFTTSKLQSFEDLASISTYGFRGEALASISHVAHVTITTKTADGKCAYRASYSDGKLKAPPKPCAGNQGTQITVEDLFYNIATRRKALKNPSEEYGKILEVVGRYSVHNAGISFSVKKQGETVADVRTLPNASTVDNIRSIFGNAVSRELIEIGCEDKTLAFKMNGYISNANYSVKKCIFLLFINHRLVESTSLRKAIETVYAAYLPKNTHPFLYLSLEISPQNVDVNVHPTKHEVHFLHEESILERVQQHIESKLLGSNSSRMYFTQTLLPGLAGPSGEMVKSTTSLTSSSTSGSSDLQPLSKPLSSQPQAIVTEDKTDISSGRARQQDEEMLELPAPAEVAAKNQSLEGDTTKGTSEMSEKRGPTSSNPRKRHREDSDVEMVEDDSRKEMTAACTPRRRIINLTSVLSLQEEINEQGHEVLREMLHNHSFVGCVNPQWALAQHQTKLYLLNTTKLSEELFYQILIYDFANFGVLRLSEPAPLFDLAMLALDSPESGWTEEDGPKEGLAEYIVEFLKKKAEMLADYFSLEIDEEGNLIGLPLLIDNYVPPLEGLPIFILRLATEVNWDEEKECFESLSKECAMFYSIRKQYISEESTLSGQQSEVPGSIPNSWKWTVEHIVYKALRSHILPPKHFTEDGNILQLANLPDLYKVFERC
T1 sequence (P54278 1-862 partner): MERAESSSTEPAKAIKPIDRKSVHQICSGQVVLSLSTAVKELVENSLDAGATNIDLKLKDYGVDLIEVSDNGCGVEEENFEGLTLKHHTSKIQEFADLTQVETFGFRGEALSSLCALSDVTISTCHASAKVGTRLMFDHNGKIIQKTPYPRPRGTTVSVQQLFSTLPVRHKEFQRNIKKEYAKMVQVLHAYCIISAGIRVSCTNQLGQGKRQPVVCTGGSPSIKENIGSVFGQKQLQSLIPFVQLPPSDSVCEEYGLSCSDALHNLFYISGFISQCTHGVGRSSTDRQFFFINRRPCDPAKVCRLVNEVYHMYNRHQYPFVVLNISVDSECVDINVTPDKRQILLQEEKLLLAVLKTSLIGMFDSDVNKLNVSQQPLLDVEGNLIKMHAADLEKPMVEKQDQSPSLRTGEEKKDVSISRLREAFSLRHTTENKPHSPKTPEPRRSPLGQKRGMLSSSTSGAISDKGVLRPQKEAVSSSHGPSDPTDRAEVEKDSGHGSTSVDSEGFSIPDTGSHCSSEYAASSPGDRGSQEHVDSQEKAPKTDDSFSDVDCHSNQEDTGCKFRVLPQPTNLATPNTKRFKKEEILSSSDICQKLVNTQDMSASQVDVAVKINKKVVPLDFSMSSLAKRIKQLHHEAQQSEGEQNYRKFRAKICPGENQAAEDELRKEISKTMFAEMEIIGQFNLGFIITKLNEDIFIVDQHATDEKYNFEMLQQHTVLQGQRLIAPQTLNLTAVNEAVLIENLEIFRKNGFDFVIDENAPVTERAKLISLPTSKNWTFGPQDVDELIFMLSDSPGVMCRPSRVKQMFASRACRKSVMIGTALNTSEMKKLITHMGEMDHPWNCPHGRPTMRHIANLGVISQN
Experiment: DNA mismatch repair (MMR) complementation assay with peptide, MLH1-ΔConMot variant
Type: biochemical
Method: Mismatch repair activity was assessed as described in detail before ([79],[81]) (Supplementary Figure S3). […] Mismatched DNA plasmid substrate (Supplementary Figure S3) prepared according to previously published procedures ([81–83]) was added, and reactions in a final volume of 25 μl were incubated at 37°C for 15 min. Repair efficiency was scored by purifying the mismatched DNA plasmid from the reaction and assessing the fraction of homoduplex sequence by restriction digestion of the mismatched site using EcoRV. The substrate was additionally linearized with AseI.
For complementation assays with peptide, the indicated peptide(s) were used at stock concentrations of 50 or 500 μM in HEPES–KOH 20 mM pH 7.6 and supplemented to the MMR reactions.
Figure 4. Reaction of DNA mismatch repair to addition of ConMot peptide. (A) Nuclear extract of MLH1-proficient HEK293 cells was used for performing the DNA mismatch repair reaction. Four reactions were undertaken, with two reactions supplemented with either 7.5 μM or 75 μM ConMot-32 peptide. A negative control reaction was performed by omitting the 37°C repair incubation. (B) MMR reactions were performed with nuclear extract of MLH1-deficient HEK293T cells supplemented with extract of cells transfected either with wildtype MLH1-PMS2 (positive control) or with MLH1-ΔConMot-PMS2. To these MMR reactions, different peptides were added at a concentration of 75 μM: A ConMot-32 peptide (A), a Scramble-32 peptide (B) in which the conserved ConMot sequence is scrambled, and a short ConMot-20 peptide (C) that only contains the twenty highly conserved ConMot residues. The peptide sequences are given below the gel image. (C) The concentration-dependence of the MMR-activating effect of the ConMot-32 peptide observed in (B) was measured over a concentration range from 1–75 μM. (D) Theoretical binding curves of a ligand (peptide) to a protein were calculated for dissociation constants (KD) of 1, 5 and 10 μM for a protein concentration as present for MLH1-PMS2 in the MMR assay reactions (see also Supplementary Figure S3). Into this diagram, the average MMR activities (and standard deviations) measured in >3 of the experiment exemplarily shown in C were introduced as bars at ConMot-32 peptide concentrations of 1, 2.5, 7.5, 18 and 75 μM.
Second, we used extract of the repair-deficient cell line HEK293T supplemented with either wildtype MutLα (MLH1-PMS2) or the ΔConMot deletion variant, corresponding to experiment shown in Figure 2B. In this experiment, we again added ConMot peptide.
We investigated the effect of the ConMot peptide more closely by titrating the required peptide concentrations for activation. We determined that the mismatch repair reactions performed in this study contained approximately 280 fmol MLH1 (Supplementary Figure S4A and B), which is in good agreement with previous quantifications of MLH1-PMS2 in cells and extracts ([96]). […] Dissociation constants (KD) for peptides to proteins are typically in the range of 1–10 μM ([97]). We compared the measured concentration-dependent MMR activities with theoretical binding curves of (peptide) ligands to (protein) substrates for KD values of 1, 5 and 10 μM (Supplementary Figure S4C) at the determined MLH1 concentration. […] It is therefore plausible that a binding reaction of the ConMot peptide (to a protein) underlies the restauration of MMR activity. […]
Deletion C on M ot (∆Co nMot) c.1129_1188del CTGCAGCCTCTGAGCAAA […]
Del et i on comp are (∆Compare) c.1221_1280del […] ACTGGACAGGGGTTTGCT
Scramble c.1147_1160delinsGAC ggtacgtTCCCGGGAACAGAAGCT atagtgtcCTGGTGGGCATAGACCT
p.(M383_D387delinsDTMVR) ACTATGGTAC G T TATC
ConMot hy bri d gcataTCTGCAGCCTCTGAGCAA acagg[…]
Supplementary Table 1: Analyzed variant inf ormation.
Variant descriptions confer to HGVS format and refer to the MLH1 reference cDNA (NM_000249.4) […]

[1] = ConMot-32, concentration range 1–75 μM, approximately 280 fmol MLH1 (11.1 nM), 37°C, 15 min, >3 experiments

SGSSDKVYAHQMVRTDSREQKLDAFLQPLSKP [ConMot-32]
peptide concentration at which almost complete activation was achieved (MMR) [1]: 75 µM
peptide concentration at which increase in MMR activity became detectable [1]: 1 µM
pEC50 (ConMot-32, concentration range 1–75 μM, approximately 280 fmol MLH1 (11.1 nM), 37°C, 15 min, >3 experiments, read-out: peptide concentration at which 50% activation was achieved (MMR)): 5.12
effect of peptide on MMR (summary in Supplementary Table 2) (molar ratio 0-860-2300-8600 to hMLH1-PMS2, Tris-HCl pH 7.5, 5 mM Mg2+, 1.5 mM ATP): activating
restoration of DNA mismatch repair activity of the ΔConMot variant (peptide 75 μM (Figure 4B), HEK293T nuclear extract 50 μg + 5 μg transfected extract, 25 μl, 37°C, 15 min, EcoRV/AseI digestion, agarose gel, listed as ConMot-peptide): could be overcome; also recorded: possible to overcome the MMR-deficiency
